Tests used:
ITK = target: T1, ITK (Homo sapiens, UniProt Q08881); assay: Screening for ITK inhibition activity; assay type: biochemical
T1 sequence (Q08881 1-620): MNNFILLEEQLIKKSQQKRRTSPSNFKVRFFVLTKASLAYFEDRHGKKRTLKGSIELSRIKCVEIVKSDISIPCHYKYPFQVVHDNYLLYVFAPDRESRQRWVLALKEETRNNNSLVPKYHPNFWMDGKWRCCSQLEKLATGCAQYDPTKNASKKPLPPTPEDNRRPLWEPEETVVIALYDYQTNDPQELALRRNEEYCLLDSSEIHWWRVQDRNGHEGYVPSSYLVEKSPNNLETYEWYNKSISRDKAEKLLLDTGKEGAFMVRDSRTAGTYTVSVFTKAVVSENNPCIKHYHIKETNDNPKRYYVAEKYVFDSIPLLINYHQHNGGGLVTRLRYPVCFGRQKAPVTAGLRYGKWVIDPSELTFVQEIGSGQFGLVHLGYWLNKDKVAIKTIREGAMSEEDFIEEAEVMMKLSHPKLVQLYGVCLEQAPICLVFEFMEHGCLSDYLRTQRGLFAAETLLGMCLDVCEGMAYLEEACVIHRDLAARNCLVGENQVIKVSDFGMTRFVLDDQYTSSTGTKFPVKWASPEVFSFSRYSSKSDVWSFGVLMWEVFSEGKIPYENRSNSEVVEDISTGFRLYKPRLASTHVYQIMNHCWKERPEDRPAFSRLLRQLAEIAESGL
Protocol: 1.4 Screening for ITK ([…]) Inhibition Activity
50 ng/μL ITK stock solution was diluted with kinase buffer (50 mM HEPES, 10 mM MgCl2, 2 mM DTT, 1 mM EGTA, 0.01% Tween 20), and 6 μL of 1.67× working solution at […] (final concentration: 0.05ng/μL) was added to each well. Different compounds dissolved in DMSO were added to the wells using a nanoliter pipettor, resulting in the final concentration of 1000 nM to 0.24 nM (4-fold gradient for 7 concentrations in total), and blank control wells (without enzyme) and negative control wells (with enzyme, plus vehicle DMSO) were set. After enzyme was reacted with the compound or vehicle for 30 min, 5×ATP at 50 μM (final concentration: 10 μM) prepared with kinase buffer was mixed with 5× substrate at 0.5 μM (final concentration: 0.1 μM, ULight-poly GT) at a ratio of 1:1, and the mixture was added to each well at 4 μL/well. After being sealed with a film, the plate was incubated at room temperature for 2 h, then 5 μL of 4×EDTA at 40 mM (final concentration: 10 mM) was added to each well. After the plate was incubated for 5 min at room temperature, 5 μL of 4×detection reagent at 8 nM (final concentration: 2 nM, Eu-anti-phospho-tyrosine antibody) was added to each well, followed by incubation at room temperature for 1 h. The plate was read using a PE Envision multi-functional microplate reader (excitation: 320 nm, emission: 665 nm), and IC50 was calculated by four-parameter fitting.

[1] = Rat liver microsome metabolic stability; assay type: in vitro ADME; details: rat liver microsomes
Protocol: 3.3 Rat Liver Microsome Assay
(§1) 300 μL of final incubation system: 30 μL of rat liver microsomes (protein concentration: 5 mg/mL, XENOTECH, USA), 30 μL of NADPH (10 mM)+MgCl2 (5 mM), 3 μL of the substrate, i.e., the example compound (dissolved in 50% aqueous acetonitrile solution, 100 μM), and 237 μL of PBS buffer, wherein the proportion of the organic solvent (acetonitrile) was 0.5%. Each tube was added with 270 μL of a mixed solution of substrate and enzyme, and after being pre-incubated at 37° C. for 5 min, added with 30 μL of NADPH+MgCl2. Then 50 μL of the mixture was taken at 0 min, 15 min, 30 min and 60 min, and added with 300 μL of diazepam glacial acetonitrile (20 ng/mL) containing an internal standard to quench the reaction. The reaction mixture was vortexed for 5 min, and centrifuged (13,000 rpm, 4° C.) for 10 min. 100 μL of supernatant was pipetted into a sample vial, from which 1 μL of supernatant was injected and analyzed by LC-MS/MS, and the remaining percentage was calculated.

[2] = Mouse liver microsome metabolic stability; assay type: in vitro ADME; details: mouse liver microsomes
Protocol: 3.2 Mouse Liver Microsome Assay
as §1, with “of mouse” for “of rat”, “the residual” for “the remaining”

| IC50 (ITK) [nM] | Rat (RLM) Remaining % (T = 60 min) [1] [%] | Mouse (MLM) Remaining % (T = 60 min) [2] [%] | SMILES |
| --- | --- | --- | --- |
| > 1000 | 30 | 90 | CC#CC(=O)N1[C@@H]2COC[C@@H]2C[C@H]1c1nc(-c2ccc(C(=O)Nc3ccccn3)cc2)c2c(N)nccn12 [Compound I-1, 4-(8-amino-3-((2S,3aR,6aS)-1-(but-2-ynoyl)hexahydro-1H-furo[3,4-b]pyrrol-2-yl)imidazo [1,5-a]pyrazin-1-yl)-N-(pyridin-2-yl)benzamide] |
| > 1000 | 42 | 89 | C=CC(=O)N1[C@@H]2COC[C@@H]2C[C@H]1c1nc(-c2ccc(C(=O)Nc3ccccn3)cc2)c2c(N)nccn12 [Compound I-3, 4-(3-((2S,3AR,6AS)-1-ACRYLOYLHEXAHYDRO-1H-FURO[3,4-B]PYRROL-2-YL)-8-AMINOIMIDAZO [1,5-A]PYRAZIN-1-YL)-N-(PYRIDIN-2-YL)BENZAMIDE] |
| > 1000 | 26 | 32 | CC#CC(=O)N1[C@@H]2COC[C@@H]2C[C@H]1c1nc(-c2ccc(C(=O)Nc3cc(C(F)(F)F)ccn3)cc2F)c2c(N)nccn12 [Compound I-4, 4-(8-AMINO-3-((2S,3AR,6AS)-1-(BUT-2-YNOYL)HEXAHYDRO-1H-FURO[3,4-B]PYRROL-2-YL)IMIDAZO[1,5-A]PYRAZIN-1-YL)-3-FLUORO-N-(4-(TRIFLUOROMETHYL)PYRIDIN-2-YL)BENZAMIDE] |
| > 1000 | 33.9 | 55.7 | Nc1nccn2c([C@@H]3C[C@H]4COC[C@H]4N3C(=O)C3CC3)nc(-c3ccc(C(=O)Nc4cc(C(F)(F)F)ccn4)cc3F)c12 [Compound I-7, 4-(8-AMINO-3-((2S,3AR,6AS)-1-(CYCLOPROPANECARBONYL)HEXAHYDRO-1H-FURO[3,4-B]PYRROL-2-YL)IMIDAZO[1,5-A]PYRAZIN-1-YL)-3-FLUORO-N-(4-(TRIFLUOROMETHYL)PYRIDIN-2-YL)BENZAMIDE] |
